PubChem BioAssay AID1963845 (Molecular Pharmacology Branch, DTP, NCI, 2024)

Test system: 429239-143-T-J1-PDC complex spheroid viability
Assay: Anticancer human tumor 429239-143-T-J1-PDC patient-derived small cell lung carcinoma cell line growth inhibition [POLQ]
Details: for IC50: curve of first compound; for viability, T/C: stronger effect = lower value
Procedure, shortened: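 Three-cell-type spheroids modelling solid tumor plus stroma served as the readout system; POL inhibitors were tested individually and in combination, concentration ranges set by clinical Cmax where known.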

[1] = second compound 0.0316 µM, first compound 0.0316 µM
[2] = second compound 0.0316 µM, first compound 0.1 µM
[3] = second compound 0.0316 µM, first compound 0.316 µM
[4] = second compound 0.0316 µM, first compound 1 µM
[5] = second compound 0.0316 µM, first compound 3.16 µM
[6] = second compound 0.0316 µM, first compound 10 µM
[7] = second compound 0.1 µM, first compound 0.0316 µM
[8] = second compound 0.1 µM, first compound 0.1 µM
[9] = second compound 0.1 µM, first compound 0.316 µM
[10] = second compound 0.1 µM, first compound 1 µM
[11] = second compound 0.1 µM, first compound 3.16 µM
[12] = second compound 0.1 µM, first compound 10 µM
[13] = second compound 0.316 µM, first compound 0.0316 µM
[14] = second compound 0.316 µM, first compound 0.1 µM
[15] = second compound 0.316 µM, first compound 0.316 µM
[16] = second compound 0.316 µM, first compound 1 µM
[17] = second compound 0.316 µM, first compound 3.16 µM
[18] = second compound 0.316 µM, first compound 10 µM
[19] = second compound 1 µM, first compound 0.0316 µM
[20] = second compound 1 µM, first compound 0.1 µM
[21] = second compound 1 µM, first compound 0.316 µM
[22] = second compound 1 µM, first compound 1 µM
[23] = second compound 1 µM, first compound 3.16 µM
[24] = second compound 1 µM, first compound 10 µM
[25] = second compound 3.16 µM, first compound 0.0316 µM
[26] = second compound 3.16 µM, first compound 0.1 µM
[27] = second compound 3.16 µM, first compound 0.316 µM
[28] = second compound 3.16 µM, first compound 1 µM
[29] = second compound 3.16 µM, first compound 3.16 µM
[30] = second compound 3.16 µM, first compound 10 µM
[31] = second compound 10 µM, first compound 0.0316 µM
[32] = second compound 10 µM, first compound 0.1 µM
[33] = second compound 10 µM, first compound 0.316 µM
[34] = second compound 10 µM, first compound 1 µM
[35] = second compound 10 µM, first compound 3.16 µM
[36] = second compound 10 µM, first compound 10 µM
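Further: luminescence signal used as surrogate measure of viable cells; spheroids exposed to compounds for seven days before readout.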
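Wherever viability, T/C is given: 100% = DMSO vehicle control viability as luminescence relative to vehicle.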

Compound `CC(C)n1c(=O)n(C)c2cnc3cc(F)c(-c4ccc(OCCCN5CCCCC5)nc4)cc3c21` + Cc1cccc(N(C)C(=O)C2C(O)CCN2c2nc(C)cc(C(F)(F)F)c2C#N)c1 has an IC50 (second compound 0.0316 µM) greater than 10000 nM, an IC50 (second compound 0.1 µM) greater than 10000 nM and an IC50 (second compound 0.316 µM) greater than 10000 nM. It also gave an IC50 (second compound 1 µM) greater than 10000 nM, an IC50 (second compound 3.16 µM) greater than 10000 nM and an IC50 (second compound 10 µM) greater than 10000 nM. The viability, T/C [1] was 104%, the viability, T/C [2] was 83% and the viability, T/C [3] was 92.2%. The viability, T/C [4] was 78.4%, the viability, T/C [5] was 78.8% and the viability, T/C [6] was 72.5%. For the same compound, the viability, T/C [7] was 90.5%, the viability, T/C [8] was 90.3% and the viability, T/C [9] was 91.7%. For the same compound, the viability, T/C [10] was 86.5%, the viability, T/C [11] was 77.7% and the viability, T/C [12] was 75.3%. It also gave a viability, T/C [13] of 85%, a viability, T/C [14] of 93.9% and a viability, T/C [15] of 72.3%. For the same compound, the viability, T/C [16] was 92.6%, the viability, T/C [17] was 81.8% and the viability, T/C [18] was 69.7%. The viability, T/C [19] was 81.8%, the viability, T/C [20] was 95.7% and the viability, T/C [21] was 94.2%. The viability, T/C [22] was 73.4%, the viability, T/C [23] was 75.6% and the viability, T/C [24] was 62.6%. The viability, T/C [25] was 89.2%, the viability, T/C [26] was 108% and the viability, T/C [27] was 88.8%. It also gave a viability, T/C [28] of 87.8%, a viability, T/C [29] of 77.6% and a viability, T/C [30] of 64.7%. It also gave a viability, T/C [31] of 83.3%, a viability, T/C [32] of 88.9% and a viability, T/C [33] of 83.3%. For the same compound, the viability, T/C [34] was 89.1%, the viability, T/C [35] was 83.4% and the viability, T/C [36] was 53.6%.

`CC1COCCN1c1cc(-c2ccnn2C)c2ccnc(-c3ccn[nH]3)c2n1` (stereo not drawn) + Nc1ccc(C#CCN(C(=O)Cc2ncc(C(F)(F)F)cc2C(F)(F)F)c2ccc(F)cc2)nn1 was tested, and the IC50 (second compound 0.0316 µM) was 545 nM, the IC50 (second compound 0.1 µM) was 469 nM and the IC50 (second compound 0.316 µM) was 466 nM. For the same compound, the IC50 (second compound 1 µM) was 373 nM, the IC50 (second compound 3.16 µM) was 343 nM and the IC50 (second compound 10 µM) was 280 nM. For the same compound, the viability, T/C [1] was 95%, the viability, T/C [2] was 77.8% and the viability, T/C [3] was 68.3%. For the same compound, the viability, T/C [4] was 33.4%, the viability, T/C [5] was 4.99% and the viability, T/C [6] was 3.79%. For the same compound, the viability, T/C [7] was 91.9%, the viability, T/C [8] was 80.6% and the viability, T/C [9] was 62.9%. It also gave a viability, T/C [10] of 27.8%, a viability, T/C [11] of 5.19% and a viability, T/C [12] of 4.25%. The viability, T/C [13] was 91.5%, the viability, T/C [14] was 78.6% and the viability, T/C [15] was 64.7%. The viability, T/C [16] was 24.5%, the viability, T/C [17] was 5.31% and the viability, T/C [18] was 3.76%. It also gave a viability, T/C [19] of 86.8%, a viability, T/C [20] of 72% and a viability, T/C [21] of 56.1%. The viability, T/C [22] was 26.2%, the viability, T/C [23] was 5.38% and the viability, T/C [24] was 4.35%. The viability, T/C [25] was 87.9%, the viability, T/C [26] was 72.5% and the viability, T/C [27] was 53.1%. It also gave a viability, T/C [28] of 26.6%, a viability, T/C [29] of 5.52% and a viability, T/C [30] of 3.58%. For the same compound, the viability, T/C [31] was 89.4%, the viability, T/C [32] was 71.2% and the viability, T/C [33] was 47.4%. For the same compound, the viability, T/C [34] was 25.8%, the viability, T/C [35] was 4.8% and the viability, T/C [36] was 3.43%.

`CCCS(=O)(=O)Nc1ccc(F)c(C(=O)c2c[nH]c3ncc(-c4ccc(Cl)cc4)cc23)c1F` + COC1C(OC(N)=O)C(O)C(Oc2ccc3c(O)c(NC(=O)c4ccc(O)c(CC=C(C)C)c4)c(=O)oc3c2C)OC1(C)C showed an IC50 (second compound 0.0316 µM) greater than 10000 nM, an IC50 (second compound 0.1 µM) greater than 10000 nM and an IC50 (second compound 0.316 µM) of 9770 nM. It also gave an IC50 (second compound 1 µM) of 8990 nM, an IC50 (second compound 3.16 µM) greater than 10000 nM and an IC50 (second compound 10 µM) of 8860 nM. The viability, T/C [1] was 105%, the viability, T/C [2] was 90.4% and the viability, T/C [3] was 101%. It also gave a viability, T/C [4] of 102%, a viability, T/C [5] of 98.6% and a viability, T/C [6] of 50.5%. It also gave a viability, T/C [7] of 95.7%, a viability, T/C [8] of 97.4% and a viability, T/C [9] of 110%. The viability, T/C [10] was 102%, the viability, T/C [11] was 92.4% and the viability, T/C [12] was 52.5%. It also gave a viability, T/C [13] of 98.8%, a viability, T/C [14] of 96.3% and a viability, T/C [15] of 106%. The viability, T/C [16] was 87.6%, the viability, T/C [17] was 109% and the viability, T/C [18] was 48.9%. The viability, T/C [19] was 104%, the viability, T/C [20] was 100% and the viability, T/C [21] was 94.5%. For the same compound, the viability, T/C [22] was 98.8%, the viability, T/C [23] was 86.2% and the viability, T/C [24] was 46%. The viability, T/C [25] was 109%, the viability, T/C [26] was 96.3% and the viability, T/C [27] was 106%. It also gave a viability, T/C [28] of 83.1%, a viability, T/C [29] of 98.5% and a viability, T/C [30] of 53.1%. It also gave a viability, T/C [31] of 92.8%, a viability, T/C [32] of 101% and a viability, T/C [33] of 104%. It also gave a viability, T/C [34] of 84.7%, a viability, T/C [35] of 119% and a viability, T/C [36] of 44.1%.

In the case of `CC1COCCN1c1cc(-c2ccnn2C)c2ccnc(-c3ccn[nH]3)c2n1` (stereo not drawn) + COC1C(OC(N)=O)C(O)C(Oc2ccc3c(O)c(NC(=O)c4ccc(O)c(CC=C(C)C)c4)c(=O)oc3c2C)OC1(C)C, the IC50 (second compound 0.0316 µM) is reported as 82.2 nM, the IC50 (second compound 0.1 µM) is reported as 76.7 nM and the IC50 (second compound 0.316 µM) is reported as 70.9 nM. For the same compound, the IC50 (second compound 1 µM) was 116 nM, the IC50 (second compound 3.16 µM) was 104 nM and the IC50 (second compound 10 µM) was 89.1 nM. The viability, T/C [1] was 85.1%, the viability, T/C [2] was 40.2% and the viability, T/C [3] was 27.5%. The viability, T/C [4] was 12.9%, the viability, T/C [5] was 10.1% and the viability, T/C [6] was 8.09%. For the same compound, the viability, T/C [7] was 71.9%, the viability, T/C [8] was 42% and the viability, T/C [9] was 28.8%. It also gave a viability, T/C [10] of 13.6%, a viability, T/C [11] of 8.87% and a viability, T/C [12] of 10.7%. The viability, T/C [13] was 75.5%, the viability, T/C [14] was 35.2% and the viability, T/C [15] was 28.5%. The viability, T/C [16] was 13.1%, the viability, T/C [17] was 10.9% and the viability, T/C [18] was 9.18%. The viability, T/C [19] was 79.2%, the viability, T/C [20] was 53.4% and the viability, T/C [21] was 27.6%. It also gave a viability, T/C [22] of 15.6%, a viability, T/C [23] of 10.5% and a viability, T/C [24] of 10.6%. It also gave a viability, T/C [25] of 83.8%, a viability, T/C [26] of 50.1% and a viability, T/C [27] of 29.3%. It also gave a viability, T/C [28] of 14.2%, a viability, T/C [29] of 10.6% and a viability, T/C [30] of 9.32%. For the same compound, the viability, T/C [31] was 72.7%, the viability, T/C [32] was 46.7% and the viability, T/C [33] was 28%. For the same compound, the viability, T/C [34] was 13.1%, the viability, T/C [35] was 9.4% and the viability, T/C [36] was 9.29%.
